Common to all, as to test: Kinase selectivity, DiscoverX scanMAX Kinase assay panel (% control)
Type in all cases: binding

Assay [1] addresses T1, kinases of the scanMAX Kinase assay panel (Homo sapiens, UniProt Q9H0K1).
T1 construct: purchased DiscoverX Co. (contract measurement) scanMAX Kinase assay panel
As to conditions: kinase SIK2; 1 uM in DMSO. The gist of the method: (§1)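 Read-out is % control, normalised so a positive-control compound sits at 0% and DMSO at 100%: (test − positive)/(negative − positive)×100. Each kinase received the compound at 1 uM in DMSO. A value below 35% counts as activity.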

Assay [2] has as its target T2, kinases of the scanMAX Kinase assay panel (Homo sapiens, UniProt P09769).
T2 construct: purchased DiscoverX Co. (contract measurement) scanMAX Kinase assay panel
To be noted: FGR; 1 uM. The gist of the method: as §1

The target in assay [3] is T3, kinases of the scanMAX Kinase assay panel (Homo sapiens, UniProt Q8NEV4).
T3 construct: purchased DiscoverX Co. (contract measurement) scanMAX Kinase assay panel
T3 sequence (Q8NEV4 whole entry): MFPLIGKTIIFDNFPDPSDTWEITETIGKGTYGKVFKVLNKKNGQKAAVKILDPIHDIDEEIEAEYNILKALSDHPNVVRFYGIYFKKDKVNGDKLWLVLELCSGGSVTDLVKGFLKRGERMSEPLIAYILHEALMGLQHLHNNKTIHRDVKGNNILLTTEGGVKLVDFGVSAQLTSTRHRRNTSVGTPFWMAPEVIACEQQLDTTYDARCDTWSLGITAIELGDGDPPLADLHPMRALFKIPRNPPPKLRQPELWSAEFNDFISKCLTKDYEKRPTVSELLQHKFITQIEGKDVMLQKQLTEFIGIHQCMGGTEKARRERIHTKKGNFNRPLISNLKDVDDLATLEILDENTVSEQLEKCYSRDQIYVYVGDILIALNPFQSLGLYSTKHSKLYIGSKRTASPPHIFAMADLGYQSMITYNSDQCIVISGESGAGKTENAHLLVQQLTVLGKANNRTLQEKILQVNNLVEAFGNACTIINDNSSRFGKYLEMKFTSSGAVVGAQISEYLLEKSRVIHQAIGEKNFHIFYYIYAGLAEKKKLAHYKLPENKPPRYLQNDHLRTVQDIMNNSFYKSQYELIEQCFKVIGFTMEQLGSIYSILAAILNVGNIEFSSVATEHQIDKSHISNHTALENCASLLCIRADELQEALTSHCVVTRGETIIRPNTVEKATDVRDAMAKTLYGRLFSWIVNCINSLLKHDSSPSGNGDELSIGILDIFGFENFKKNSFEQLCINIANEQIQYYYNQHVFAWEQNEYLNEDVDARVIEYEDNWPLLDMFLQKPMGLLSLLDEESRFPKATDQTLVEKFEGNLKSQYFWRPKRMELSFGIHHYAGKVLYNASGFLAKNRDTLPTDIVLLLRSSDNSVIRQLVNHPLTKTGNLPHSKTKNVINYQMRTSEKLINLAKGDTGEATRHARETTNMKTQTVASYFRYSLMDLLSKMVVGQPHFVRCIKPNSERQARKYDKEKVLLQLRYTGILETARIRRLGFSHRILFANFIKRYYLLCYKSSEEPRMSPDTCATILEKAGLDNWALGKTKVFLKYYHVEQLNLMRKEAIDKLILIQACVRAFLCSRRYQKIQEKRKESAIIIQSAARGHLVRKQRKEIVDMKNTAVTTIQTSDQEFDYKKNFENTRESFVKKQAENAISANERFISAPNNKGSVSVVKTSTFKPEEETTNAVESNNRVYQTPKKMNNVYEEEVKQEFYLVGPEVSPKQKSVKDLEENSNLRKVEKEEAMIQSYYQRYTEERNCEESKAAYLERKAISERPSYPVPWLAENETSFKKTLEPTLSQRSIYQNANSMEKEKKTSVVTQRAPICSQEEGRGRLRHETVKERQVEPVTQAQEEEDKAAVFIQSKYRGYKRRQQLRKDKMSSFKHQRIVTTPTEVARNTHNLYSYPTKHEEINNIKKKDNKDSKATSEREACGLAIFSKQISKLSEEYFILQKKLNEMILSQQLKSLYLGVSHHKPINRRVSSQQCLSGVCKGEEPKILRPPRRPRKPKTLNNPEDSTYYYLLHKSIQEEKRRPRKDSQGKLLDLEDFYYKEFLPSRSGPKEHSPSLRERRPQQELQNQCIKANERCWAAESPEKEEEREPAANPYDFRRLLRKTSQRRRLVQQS
As to conditions: MYO3A; 1 uM. The procedure, abridged: as §1

Assay [4] deals with T4, kinases of the scanMAX Kinase assay panel (Homo sapiens, UniProt P36507).
T4 construct: purchased DiscoverX Co. (contract measurement) scanMAX Kinase assay panel
T4 sequence (P36507 whole entry): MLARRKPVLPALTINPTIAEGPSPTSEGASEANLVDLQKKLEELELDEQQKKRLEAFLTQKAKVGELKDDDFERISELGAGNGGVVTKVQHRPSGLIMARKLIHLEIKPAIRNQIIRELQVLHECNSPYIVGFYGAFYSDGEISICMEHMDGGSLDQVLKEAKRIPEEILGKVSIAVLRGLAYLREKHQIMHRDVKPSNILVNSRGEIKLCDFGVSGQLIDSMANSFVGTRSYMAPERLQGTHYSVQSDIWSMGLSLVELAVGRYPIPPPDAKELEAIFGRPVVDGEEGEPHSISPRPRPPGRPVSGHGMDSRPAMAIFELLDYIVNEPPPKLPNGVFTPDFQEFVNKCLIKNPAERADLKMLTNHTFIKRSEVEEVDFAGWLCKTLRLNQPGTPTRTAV
As to conditions: MEK2; 1 uM. The gist of the method:
as §1

Assay [5] addresses T5, kinases of the scanMAX Kinase assay panel (Homo sapiens, UniProt P42336, I800L).
T5 construct: purchased DiscoverX Co. (contract measurement) scanMAX Kinase assay panel
As to conditions: PIK3CA(I800L); 1 uM. The procedure, abridged:
as §1

Assay [6] deals with T6, kinases of the scanMAX Kinase assay panel (Homo sapiens, UniProt Q99683).
T6 construct: purchased DiscoverX Co. (contract measurement) scanMAX Kinase assay panel
T6 sequence (Q99683 1-1374): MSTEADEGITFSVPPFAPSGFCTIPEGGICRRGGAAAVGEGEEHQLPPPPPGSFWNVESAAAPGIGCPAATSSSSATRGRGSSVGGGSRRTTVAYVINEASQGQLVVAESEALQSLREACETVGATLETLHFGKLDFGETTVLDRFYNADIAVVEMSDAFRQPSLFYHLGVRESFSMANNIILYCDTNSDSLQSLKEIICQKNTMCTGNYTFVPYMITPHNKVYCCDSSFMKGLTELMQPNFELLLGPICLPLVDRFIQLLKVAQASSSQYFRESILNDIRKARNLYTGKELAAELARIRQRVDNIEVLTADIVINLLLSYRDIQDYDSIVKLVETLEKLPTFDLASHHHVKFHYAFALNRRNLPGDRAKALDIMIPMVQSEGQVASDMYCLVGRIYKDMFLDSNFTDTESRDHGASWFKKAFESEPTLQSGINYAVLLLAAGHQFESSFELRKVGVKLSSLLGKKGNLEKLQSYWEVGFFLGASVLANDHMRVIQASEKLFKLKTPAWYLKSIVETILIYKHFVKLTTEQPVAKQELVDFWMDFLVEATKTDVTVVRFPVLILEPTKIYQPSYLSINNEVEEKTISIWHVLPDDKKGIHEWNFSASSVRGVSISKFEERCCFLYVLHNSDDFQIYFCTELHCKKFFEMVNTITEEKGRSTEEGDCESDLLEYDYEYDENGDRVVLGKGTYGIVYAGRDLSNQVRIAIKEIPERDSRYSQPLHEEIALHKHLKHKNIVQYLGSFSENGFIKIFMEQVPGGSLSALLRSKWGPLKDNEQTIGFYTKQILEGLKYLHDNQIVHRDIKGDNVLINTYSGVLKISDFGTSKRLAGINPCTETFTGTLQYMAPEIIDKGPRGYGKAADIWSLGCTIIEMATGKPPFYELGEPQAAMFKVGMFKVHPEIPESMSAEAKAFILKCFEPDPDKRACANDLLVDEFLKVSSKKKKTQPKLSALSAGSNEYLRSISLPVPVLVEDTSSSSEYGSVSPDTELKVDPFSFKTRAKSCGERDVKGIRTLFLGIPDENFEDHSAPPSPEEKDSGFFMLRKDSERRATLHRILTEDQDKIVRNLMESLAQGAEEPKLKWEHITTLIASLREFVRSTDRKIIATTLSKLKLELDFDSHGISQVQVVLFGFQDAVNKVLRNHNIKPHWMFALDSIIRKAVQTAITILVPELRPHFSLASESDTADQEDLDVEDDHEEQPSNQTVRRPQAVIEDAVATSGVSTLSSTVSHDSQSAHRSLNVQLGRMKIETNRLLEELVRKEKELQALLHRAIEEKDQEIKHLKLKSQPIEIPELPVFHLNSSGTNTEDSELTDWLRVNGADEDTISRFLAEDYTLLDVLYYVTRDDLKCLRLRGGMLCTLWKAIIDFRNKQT
To be noted: ASK1; 1 uM. The gist of the method:
as §1

For assay [7], the target named is T7, kinases of the scanMAX Kinase assay panel (Homo sapiens, UniProt Q9BZL6).
T7 construct: purchased DiscoverX Co. (contract measurement) scanMAX Kinase assay panel
T7 sequence (Q9BZL6 1-878): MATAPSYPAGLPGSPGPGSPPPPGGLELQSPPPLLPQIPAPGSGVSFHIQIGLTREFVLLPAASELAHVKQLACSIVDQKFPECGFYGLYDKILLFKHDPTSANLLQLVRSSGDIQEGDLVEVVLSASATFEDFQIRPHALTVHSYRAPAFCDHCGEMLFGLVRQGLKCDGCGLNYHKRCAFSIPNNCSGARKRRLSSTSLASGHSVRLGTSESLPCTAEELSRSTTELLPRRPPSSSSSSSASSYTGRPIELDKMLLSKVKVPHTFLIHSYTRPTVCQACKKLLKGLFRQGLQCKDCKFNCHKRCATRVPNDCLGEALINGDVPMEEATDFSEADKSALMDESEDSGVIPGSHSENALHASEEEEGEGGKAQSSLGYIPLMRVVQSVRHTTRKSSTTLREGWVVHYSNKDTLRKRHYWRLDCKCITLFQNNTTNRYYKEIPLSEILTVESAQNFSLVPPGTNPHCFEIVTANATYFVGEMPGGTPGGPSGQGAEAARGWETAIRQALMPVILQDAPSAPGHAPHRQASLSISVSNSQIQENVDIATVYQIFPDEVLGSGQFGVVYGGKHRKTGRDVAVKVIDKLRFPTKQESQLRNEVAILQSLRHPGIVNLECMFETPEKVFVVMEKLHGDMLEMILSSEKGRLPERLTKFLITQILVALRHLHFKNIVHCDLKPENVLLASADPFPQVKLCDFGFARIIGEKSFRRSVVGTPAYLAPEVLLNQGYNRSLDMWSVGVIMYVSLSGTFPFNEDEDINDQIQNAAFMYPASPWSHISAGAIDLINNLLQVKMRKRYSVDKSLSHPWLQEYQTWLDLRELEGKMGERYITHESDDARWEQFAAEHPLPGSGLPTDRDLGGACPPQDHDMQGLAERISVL
To be noted: PRKD2; 1 uM. The procedure, abridged:
as §1

T5 sequence (P42336 whole entry I800L): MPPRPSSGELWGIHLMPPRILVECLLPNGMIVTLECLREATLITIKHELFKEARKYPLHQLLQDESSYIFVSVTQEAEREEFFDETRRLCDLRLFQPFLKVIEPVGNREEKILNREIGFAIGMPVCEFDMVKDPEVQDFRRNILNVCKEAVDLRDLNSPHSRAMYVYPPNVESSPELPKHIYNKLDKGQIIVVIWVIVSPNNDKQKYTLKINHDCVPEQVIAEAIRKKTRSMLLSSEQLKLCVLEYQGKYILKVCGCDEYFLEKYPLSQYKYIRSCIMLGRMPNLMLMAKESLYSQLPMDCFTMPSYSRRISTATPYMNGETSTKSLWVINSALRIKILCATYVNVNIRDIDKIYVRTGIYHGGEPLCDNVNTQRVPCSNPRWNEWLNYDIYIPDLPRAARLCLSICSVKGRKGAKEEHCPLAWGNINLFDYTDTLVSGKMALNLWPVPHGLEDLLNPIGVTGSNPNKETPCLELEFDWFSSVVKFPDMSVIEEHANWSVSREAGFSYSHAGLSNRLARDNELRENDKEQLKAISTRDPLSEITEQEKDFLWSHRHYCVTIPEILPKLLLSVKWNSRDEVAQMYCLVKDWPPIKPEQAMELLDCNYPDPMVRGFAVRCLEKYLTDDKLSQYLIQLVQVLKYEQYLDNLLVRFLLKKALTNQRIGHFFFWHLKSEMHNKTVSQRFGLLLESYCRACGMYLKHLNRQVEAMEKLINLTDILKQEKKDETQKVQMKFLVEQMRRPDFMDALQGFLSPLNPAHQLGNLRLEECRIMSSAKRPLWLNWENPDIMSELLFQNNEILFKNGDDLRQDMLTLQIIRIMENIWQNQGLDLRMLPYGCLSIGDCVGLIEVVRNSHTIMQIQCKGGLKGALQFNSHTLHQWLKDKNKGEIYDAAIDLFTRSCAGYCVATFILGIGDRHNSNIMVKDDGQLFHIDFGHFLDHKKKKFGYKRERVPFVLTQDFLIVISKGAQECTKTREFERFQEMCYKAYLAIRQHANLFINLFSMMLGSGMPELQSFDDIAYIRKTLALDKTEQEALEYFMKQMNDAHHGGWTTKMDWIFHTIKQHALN
T1 sequence (Q9H0K1 whole entry): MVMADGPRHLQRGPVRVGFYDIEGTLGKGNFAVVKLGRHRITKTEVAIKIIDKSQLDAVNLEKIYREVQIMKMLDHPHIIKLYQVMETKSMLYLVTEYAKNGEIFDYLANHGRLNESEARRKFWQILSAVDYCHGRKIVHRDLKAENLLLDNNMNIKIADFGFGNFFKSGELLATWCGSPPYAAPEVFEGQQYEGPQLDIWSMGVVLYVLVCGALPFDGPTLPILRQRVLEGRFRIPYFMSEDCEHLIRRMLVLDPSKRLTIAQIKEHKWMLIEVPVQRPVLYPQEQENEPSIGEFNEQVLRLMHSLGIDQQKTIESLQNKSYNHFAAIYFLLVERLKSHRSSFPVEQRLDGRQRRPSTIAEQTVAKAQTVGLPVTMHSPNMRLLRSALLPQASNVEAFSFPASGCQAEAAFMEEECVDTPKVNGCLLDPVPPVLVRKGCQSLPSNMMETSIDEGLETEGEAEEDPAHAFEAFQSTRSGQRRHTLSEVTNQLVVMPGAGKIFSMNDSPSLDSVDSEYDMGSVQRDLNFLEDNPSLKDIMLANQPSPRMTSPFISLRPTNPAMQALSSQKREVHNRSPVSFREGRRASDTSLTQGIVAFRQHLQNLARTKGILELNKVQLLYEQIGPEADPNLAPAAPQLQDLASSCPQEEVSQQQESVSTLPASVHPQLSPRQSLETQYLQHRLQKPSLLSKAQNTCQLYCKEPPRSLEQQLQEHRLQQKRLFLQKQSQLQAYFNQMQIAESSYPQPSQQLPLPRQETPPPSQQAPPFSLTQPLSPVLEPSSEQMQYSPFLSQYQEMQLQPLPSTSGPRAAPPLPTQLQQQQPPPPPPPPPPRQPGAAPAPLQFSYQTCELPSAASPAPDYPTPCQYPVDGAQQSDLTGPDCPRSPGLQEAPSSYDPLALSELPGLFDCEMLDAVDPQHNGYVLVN
T2 sequence (P09769 whole entry): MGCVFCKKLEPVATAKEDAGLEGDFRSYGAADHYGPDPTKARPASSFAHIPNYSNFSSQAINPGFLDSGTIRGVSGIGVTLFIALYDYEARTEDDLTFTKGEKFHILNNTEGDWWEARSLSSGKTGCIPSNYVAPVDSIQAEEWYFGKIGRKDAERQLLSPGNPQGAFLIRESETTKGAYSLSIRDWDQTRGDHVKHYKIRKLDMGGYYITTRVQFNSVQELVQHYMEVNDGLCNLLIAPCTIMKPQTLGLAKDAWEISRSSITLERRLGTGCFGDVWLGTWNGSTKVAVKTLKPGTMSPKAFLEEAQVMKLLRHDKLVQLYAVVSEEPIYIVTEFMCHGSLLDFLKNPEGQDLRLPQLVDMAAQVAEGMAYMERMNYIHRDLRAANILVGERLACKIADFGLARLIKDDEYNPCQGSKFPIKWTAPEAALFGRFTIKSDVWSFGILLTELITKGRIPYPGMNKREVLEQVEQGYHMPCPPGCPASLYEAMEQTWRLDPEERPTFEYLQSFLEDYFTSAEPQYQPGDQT

In the case of `CNc1nc(Nc2ccc(C(=O)N3CCOCC3)cc2OC)nc2[nH]cc(C#N)c12` [Example 1, 2-((2-methoxy-4-(morpholine-4-carbonyl)phenyl)amino)-4-(methylamino)-7H-pyrrolo[2,3-d]pyrimidine-5-carbonitrile], the remaining binding at 1 µM came out at 100% in assay [1]; 94% in assay [2]; 68% in assay [3]; 93% in assay [4]; 100% in assay [5]; 57% in assay [6]. Also, the remaining binding at 1 µM in assay [7] came out at 28%.
As to `CC1(Nc2nc(Nc3cnn([C@H]4CCN(C5COC5)C[C@@H]4F)c3Cl)nc3[nH]cc(C#N)c23)CC1` [Example 52, 2-((5-chloro-1-((3S,4S)-3-fluoro-1-(oxetane-3-yl)piperidine-4-yl)-1H-pyrazole-4-yl)amino)((1-methylcyclopropyl)amino)-7H-pyrrolo[2,3-d]pyrimidine-5-carbonitrile], the remaining binding at 1 µM turned out to be 33% in assay [1]; 10% in assay [2]; 3.9% in assay [3]; 0.3% in assay [4]; 0.1% in assay [5]; 1.8% in assay [6]. The remaining binding at 1 µM in assay [7] amounted to 9.1%.
On to `CCNc1nc(Nc2ccc(C(=O)N3CCC(N4CCOCC4)CC3)cc2OC)nc2[nH]cc(C(F)(F)F)c12` [Example 104, (4-((4-(ethylamino)-5-(trifluoromethyl)-7H-pyrrolo[2,3-d]pyrimidine-2-yl)amino)-3-methoxyphenyl)(4-morpholinopiperidine-1-yl)methanone], for which the remaining binding at 1 µM in assay [1] is 100%; in assay [2], 100%; in assay [3] it was 78%; in assay [4], 83%; in assay [5], 72%; in assay [6] it was 82%. In assay [7], the remaining binding at 1 µM turned out to be 16%.

(Values after patent US11208412B2 (DAEGU-GYEONGBUK MEDICAL INNOVATION FOUNDATION, priority 2017, dated 2021).)
